Results taken from patent publication EP4725956A1, “MODIFIED POLYPEPTIDE AND USE THEREOF IN FIELD OF ANALGESIA” (Nanjing Anji Biotechnology Co., Ltd., priority 2023, dated 2024).
Positions of bridges follow the written chain, without caps; N, C: chain ends. Non-standard residues stand in square brackets, D forms with d. Residues, ends and D or L forms follow the SMILES beside them. Bip = N[C@@H](Cc1ccc(-c2ccccc2)cc1)C(=O)O; Hyp = O=C(O)[C@@H]1C[C@@H](O)CN1; Nle = CCCC[C@H](N)C(=O)O; Orn = NCCC[C@H](N)C(=O)O; Abu = CC[C@H](N)C(=O)O; Aib = CC(C)(N)C(=O)O; Sar = CNCC(=O)O

Key:
α7 nAChR = α7 nAChR (Homo sapiens, UniProt P36544); test: BLI (biolayer interferometry) affinity of peptides to α7 nAChR; assay type: binding; set-up: inferred from the 'similar' procedure on NTA sensors; conditions: NTA sensor, α7 nAChR 20 µg/mL, peptide 1.372-1000 nM in PBS
Excerpt: BLI is a label-free technology that converts optical interference signals occurring on the surface of BLI biosensors into real-time response signals. By monitoring the molecular binding process in real time, the system determines association rate constants (ka or kon), dissociation rate constants (kd or koff), and initial binding rates, and calculates affinity (KD) by fitting analysis. Here are the specific procedures: NTA sensors (Sartorius) were placed in a pre-wetting tray, which was then positioned in a black 96-well plate with 200 µL PBS per well. The NTA sensors were pre-wetted for at least 15 minutes. The target protein α9 nAChR was diluted in PBS to 5 µg/mL, with 200 µL added per well. Test peptides were dissolved in PBS and serially diluted threefold, with concentrations from high to low as 1000 nM, 333.3 nM, 111.1 nM, 37.04 nM, 12.35 nM, 4.115 nM, and 1.372 nM, with an additional well with PBS only as a zeroconcentration control. After equilibrating the instrument baseline, the NTA sensor was used to immobilize the target protein α9 nAChR. Once immobilization was complete, the baseline was re-equilibrated, followed by a 5-minute association and a 5-minute dissociation phase. Affinity measurements of the test peptides were conducted sequentially using the above procedure. The procedure for measuring peptide affinity to α7 nAChR was similar, except that the α7 nAChR concentration was 20 µg/mL. Tables 2 and 3 show the BLI-determined affinities of alanine-scan peptide analogs with target proteins, which identified sites on the parent peptide suitable for modification. Subsequently, single-site non-natural amino acid substituted peptides were evaluated by BLI for target protein affinity. Finally, multi-site combinatorial modified peptides were measured for affinity by BLI, leading to the selection of high-affinity peptides for further screen and drug development potential. Table 2 Test Results for Affinity of Modified Peptides to α9 nAChR

[1] = In vitro plasma stability and predicted half-life (HPLC main peak area, Example 3); assay type: in vitro ADME; conditions: human plasma (EDTA anticoagulant), 37°C, sampled up to 24 h, predicted half-life calculated with Winolin
Description: The modified peptides in this study were designed with non-natural amino acid substitutions at certain non-essential positions to enhance peptide stability and improve druggability. Peptides were dissolved in deionized water to 2 mg/mL, then diluted with acetonitrile to 1 mg/mL and filtered through an organic membrane. 200 µL of the filtrate was transferred to an LC vial as the peptide control. 300 µL of human plasma (comprising EDTA as anticoagulant, Nanjing Senbeijia Biotechnology Co., Ltd., Lot No. SBJ-P-HU011-100 mL) was mixed with 300 µL acetonitrile, centrifuged at 4°C and 12,000 rpm for 5 minutes. The supernatant was filtered through an organic membrane, and 200 µL of the filtrate was transferred to an LC vial as the plasma blank control. For peptide samples, 10 mg of peptide was weighed mixed with 5 mL of human plasma and vortexed thoroughly. 300 µL of peptide-containing plasma was mixed with 300 µL acetonitrile, centrifuged at 4°C and 12,000 rpm for 5 minutes, and the supernatant was filtered through an organic membrane. 200 µL of the filtrate was transferred to an LC vial as the 0 min sample. Peptide-containing plasma was incubated in a 37°C water bath, and samples at other time points were collected using the same procedure as the 0 min sample. For peptides AJ003 and AJ003-1, the sampling time points were 0 min, 5 min, 10 min, 20 min, 30 min, 1 h, 2 h, 4 h, 6 h, 10 h, 12 h, and 24 h. For modified peptides AJ003-34, AJ003-35, AJ003-36, AJ003-37, AJ003-38, AJ003-39, AJ003-40, AJ003-41, and AJ003-42, the time points were 0 min, 10 min, 30 min, 1 h, 4 h, 6 h, 10 h, 12 h, and 24 h. All peptide sample series were analyzed by HPLC, recording the changes in main peak areas over plasma incubation time. Predicted in vitro half-lives were calculated using the pharmacokinetic software Winolin. Due to the presence of tautomers, AJ003 peak areas were difficult to integrate accurately over time. AJ003-1 is an analog of AJ003 in which the threonine at position 5 is substituted with D-threonine; its sequence differs from AJ003 by only one amino acid configuration. […] The in vitro plasma half-lives of modified peptides AJ003-34, AJ003-35, AJ003-36, AJ003-37, AJ003-38, AJ003-39, AJ003-40, AJ003-41, and AJ003-42 were 61.9 h, 45.3 h, 65.3 h, 71.0 h, 26.7 h, 43.0 h, 84.0 h, 30.0 h, and 61.4 h, respectively.

| SMILES | Kd (α7 nAChR) | half-life at 2 mg/mL [1] |
| --- | --- | --- |
| CCCC[C@H](NC(=O)[C@@H](NC(=O)[C@H]1CSSC[C@H](NC(=O)[C@H](CO)NC(=O)CN)C(=O)N[C@@H](CO)C(=O)N[C@H]([C@H](C)O)C(=O)N2C[C@H](O)C[C@H]2C(=O)N2C[C@H](O)C[C@H]2C(=O)N[C@@H](C)C(=O)N1)C(C)C)C(=O)N[C@@H](Cc1c[nH]c2ccccc12)C(=O)N[C@@H](CCCN)C(N)=O [AJ003-41, GSCS-(D-Thr)-Hyp-Hyp-A-(D-Cys)-V-Nle-W-Orn-NH2 (3,9 disulfide bond)] (H-GSCS[dT][Hyp][Hyp]A[dC]V[Nle]W[Orn]-NH2; disulfide 3-9) | 110 nM | 30 h |
| CC(C)C[C@H](NC(=O)[C@@H](NC(=O)[C@H]1CSSC[C@H](NC(=O)[C@H](CO)NC(=O)CN)C(=O)N[C@@H](CO)C(=O)N[C@H]([C@H](C)O)C(=O)N2CCC[C@H]2C(=O)N2CCC[C@H]2C(=O)N[C@@H](CO)C(=O)N1)C(C)C)C(=O)N[C@@H](Cc1ccc(O)cc1)C(=O)N[C@@H](CO)C(=O)O [AJ003-1, GSCS-(D-Thr)-PPS-(D-Cys)-VLYS (3,9 disulfide bond)] (H-GSCS[dT]PPS[dC]VLYS-OH; disulfide 3-9) |  | ~10.8 h |
| CCCC[C@H](NC(=O)[C@@H](NC(=O)[C@H]1CSSC[C@H](NC(=O)[C@H](CO)NC(=O)CN)C(=O)N[C@@H](CO)C(=O)N[C@H]([C@H](C)O)C(=O)N2C[C@H](O)C[C@H]2C(=O)N2C[C@H](O)C[C@H]2C(=O)NC(C)(C)C(=O)N1)C(C)C)C(=O)N[C@@H](Cc1ccccc1)C(=O)N[C@@H](CCCN)C(N)=O [AJ003-39, GSCS-(D-Thr)-Hyp-Hyp-Aib-(D-Cys)-V-Nle-F-Orn-NH2 (3,9 disulfide bond)] (H-GSCS[dT][Hyp][Hyp][Aib][dC]V[Nle]F[Orn]-NH2; disulfide 3-9) | 410 nM | 43 h |
| CC(C)C[C@H](NC(=O)[C@@H](NC(=O)[C@H]1CSSC[C@@H](NC(=O)[C@H](CO)NC(=O)CN)C(=O)N[C@@H](CO)C(=O)N[C@H]([C@H](C)O)C(=O)N2CCC[C@H]2C(=O)N2CCC[C@H]2C(=O)N[C@@H](CO)C(=O)N1)C(C)C)C(=O)N[C@@H](Cc1ccc(O)cc1)C(=O)N[C@@H](CO)C(=O)O [AJ003-5, GS-(D-Cys)-S-(D-Thr)-PPS-(D-Cys)-VLYS (3,9 disulfide bond)] (H-GS[dC]S[dT]PPS[dC]VLYS-OH; disulfide 3-9) | 400 nM |  |
| CC(C)C[C@H](NC(=O)[C@@H](NC(=O)[C@H]1CSSC[C@H](NC(=O)[C@H](CO)NC(=O)CN)C(=O)N[C@@H](CO)C(=O)N[C@H]([C@H](C)O)C(=O)N2CCC[C@H]2C(=O)N2CCC[C@H]2C(=O)N[C@@H](CO)C(=O)N1)C(C)C)C(=O)N[C@@H](Cc1ccc(O)cc1)C(=O)N[C@@H](CCCN)C(N)=O [AJ003-33, GSCS-(D-Thr)-PPS-(D-Cys)-VLY-Orn-NH2 (3,9 disulfide bond)] (H-GSCS[dT]PPS[dC]VLY[Orn]-NH2; disulfide 3-9) | 400 nM |  |
| CCCC[C@H](NC(=O)[C@@H](NC(=O)[C@H]1CSSC[C@H](NC(=O)[C@H](CO)NC(=O)CN)C(=O)N[C@@H](CO)C(=O)N[C@H]([C@H](C)O)C(=O)N2C[C@H](O)C[C@H]2C(=O)N2C[C@H](O)C[C@H]2C(=O)N[C@@H](C)C(=O)N1)C(C)C)C(=O)N[C@@H](Cc1ccccc1)C(=O)N[C@@H](CCCN)C(N)=O [AJ003-38, GSCS-(D-Thr)-Hyp-Hyp-A-(D-Cys)-V-Nle-F-Orn-NH2 (3,9 disulfide bond)] (H-GSCS[dT][Hyp][Hyp]A[dC]V[Nle]F[Orn]-NH2; disulfide 3-9) | 187 nM | 26.7 h |
| CNCC(=O)N[C@@H](CO)C(=O)N[C@H]1CSSC[C@H](C(=O)N[C@H](C(=O)N[C@@H](CC(C)C)C(=O)N[C@@H](Cc2ccc(O)cc2)C(=O)N[C@@H](CO)C(=O)O)C(C)C)NC(=O)[C@H](CO)NC(=O)[C@@H]2CCCN2C(=O)[C@@H]2CCCN2C(=O)[C@@H]([C@H](C)O)NC(=O)[C@H](CO)NC1=O [AJ003-8, Sar-SCS-(D-Thr)-PPS-(D-Cys)-VLYS (3,9 disulfide bond)] (H-[Sar]SCS[dT]PPS[dC]VLYS-OH; disulfide 3-9) | 6420 nM |  |
| CC[C@H](NC(=O)[C@@H](NC(=O)[C@H]1CSSC[C@H](NC(=O)[C@H](CO)NC(=O)CN)C(=O)N[C@@H](CO)C(=O)N[C@H]([C@H](C)O)C(=O)N2CCC[C@H]2C(=O)N2CCC[C@H]2C(=O)N[C@@H](CO)C(=O)N1)C(C)C)C(=O)N[C@@H](Cc1ccc(O)cc1)C(=O)N[C@@H](CO)C(=O)O [AJ003-28, GSCS-(D-Thr)-PPS-(D-Cys)-V-ABu-YS (3,9 disulfide bond)] (H-GSCS[dT]PPS[dC]V[Abu]YS-OH; disulfide 3-9) | 690 nM |  |
| CC(C)C[C@H](NC(=O)[C@@H](NC(=O)[C@H]1CSSC[C@H](NC(=O)[C@H](CO)NC(=O)CN)C(=O)N[C@@H](CO)C(=O)N[C@H]([C@H](C)O)C(=O)N2CCC[C@H]2C(=O)N2CCC[C@H]2C(=O)N[C@@H](CO)C(=O)N1)C(C)C)C(=O)N[C@@H](Cc1ccc(-c2ccccc2)cc1)C(=O)N[C@@H](CO)C(=O)O [AJ003-32, GSCS-(D-Thr)-PPS-(D-Cys)-VL-Bip-S (3,9 disulfide bond)] (H-GSCS[dT]PPS[dC]VL[Bip]S-OH; disulfide 3-9) | 375 nM |  |
| CCCC[C@H](NC(=O)[C@@H](NC(=O)[C@H]1CSSC[C@H](NC(=O)[C@H](CO)NC(=O)CN)C(=O)N[C@@H](CO)C(=O)N[C@H]([C@H](C)O)C(=O)N2CCC[C@H]2C(=O)N2CCC[C@H]2C(=O)N[C@@H](CO)C(=O)N1)C(C)C)C(=O)N[C@@H](Cc1ccc(O)cc1)C(=O)N[C@@H](CO)C(=O)O [AJ003-29, GSCS-(D-Thr)-PPS-(D-Cys)-V-Nle-YS (3,9 disulfide bond)] (H-GSCS[dT]PPS[dC]V[Nle]YS-OH; disulfide 3-9) | 674 nM |  |
| CC(C)C[C@@H](NC(=O)[C@H](NC(=O)[C@H]1CSSC[C@@H](NC(=O)[C@@H](CO)NC(=O)CN)C(=O)N[C@H](CO)C(=O)N[C@H]([C@H](C)O)C(=O)N2CCC[C@@H]2C(=O)N2CCC[C@@H]2C(=O)N[C@H](CO)C(=O)N1)C(C)C)C(=O)N[C@H](Cc1ccc(O)cc1)C(=O)N[C@H](CO)C(=O)O [AJ003-6] (H-G[dS][dC][dS][dT][dP][dP][dS][dC][dV][dL][dY][dS]-OH; disulfide 3-9) | 532 nM |  |
| CC(C)C[C@H](NC(=O)[C@@H](NC(=O)[C@H]1CSSC[C@H](NC(=O)[C@H](CO)NC(=O)CN)C(=O)N[C@@H](CO)C(=O)N[C@H]([C@H](C)O)C(=O)N2CCC[C@H]2C(=O)N2CCC[C@H]2C(=O)N[C@@H](CO)C(=O)N1)C(C)C)C(=O)N[C@@H](Cc1ccc(O)cc1)C(=O)N[C@@H](CO)C(N)=O [AJ003-4, GSCS-(D-Thr)-PPS-(D-Cys)-VLYS-NH2 (3,9 disulfide bond)] (H-GSCS[dT]PPS[dC]VLYS-NH2; disulfide 3-9) | 339 nM |  |
